# Reference: patent US20190375786A1, “STABLE PEPTIDES AND METHODS OF USE THEREOF” (Fred Hutchinson Cancer Research Center, priority 2016, published 2019)
# Positions of bridges follow the written chain, without caps; N, C: chain ends. Residues, ends and D or L forms follow the SMILES beside them.
# Tests used:
# trypsin = trypsin (Sus scrofa, UniProt P00761); assay: Trypsin digestion resistance of soluble peptide, RP-HPLC; type: in vitro ADME, porcine; design: purchased Sigma Aldrich 6567; conditions: 500 U/ml trypsin, 30 minutes at 37.5° C.; HPLC peak vs untreated peptide
# Protocol: (§1) Peptides were first suspended in 500 μl of ddH2O to a stock concentration of 2 mg/ml. Reactions were prepared by adding 12.5 μg of peptide from the stock solution to a 10 mM solution of DTT in PBS and allowed to incubate at room temperature for 30 minutes. Other reactions were prepared with 12.5 μg peptide and 500 U/ml trypsin in 25 mM Tris/75 mM NaCl buffer (pH 7.0) and incubated for 30 minutes at 37.5° C. These reactions were then quenched with 5 μg of soybean trypsin inhibitor (I) and, in some cases, 10 mM dithiothreitol (DTT). Reversed phase HPLC (RP-HPLC) was run on samples using an Agilent 1260 HPLC equipped with a C-18 Poroshell 120B column. Sample were analyzed by a gradient method with a mobile phase of Solvent A (water with 0.1% TFA) and Solvent B (acetonitrile with 0.1% TFA). Solvent B was ramped up from 5%-45% of the mobile phase over a period of 10 minutes. For testing pepsin digestion resistance, reactions were prepared with 12.5 μg peptide with or without 500 U/ml pepsin in simulated gastric fluid (SGF; pH 1.05; […] sodium chloride in 0.7% (v/v) hydrochloric acid) and were incubated for 30 minutes at 37.5° C. For testing temperature resistance, peptides were incubated at 70° C., 75° C., or 100° C. for one hour in 0.5 mM PBS, pelleted, and then the supernatant was analyzed by HPLC.
# (§2) This example illustrates peptide stability in biological conditions including in the presence of reducing agents, proteases, oxidative conditions, acidic conditions, and simulated gastric fluids. […] Various peptides were suspended in 500 μl of ddH2O at a stock concentration of 2 mg/ml. This was then diluted in accord with the reaction conditions to prevent adverse buffering effects. Reactions were prepared with 12.5 μg peptide dissolved in solution and, in some samples, additionally suspended in a 10 mM solution of DTT, simulated gastric fluid (pH 1.05; […] sodium chloride in 0.7% (v/v) hydrochloric acid), 500 U pepsin (5000 U/ml pepsin), 50 U trypsin (500 U/ml trypsin) with 1 mg/ml inhibitor in PBS, or a combination of any of these conditions. All protease reactions were incubated for 30 min at room temperature and then quenched. Pepsin reactions were quenched by adding Tris base to a final concentration of 0.075 M. Trypsin reactions were quenched by adding excess soybean trypsin inhibitor. RP-HPLC was then run on samples using an Agilent 1260 HPLC equipped with a C-18 Poroshell 120B column. Sample were analyzed by a gradient method with a mobile phase of Solvent A (water with 0.1% TFA) and Solvent B (acetonitrile with 0.1% TFA). Solvent B was ramped up from 5%-45% of the mobile phase over a period of 10 minutes.
# Soluble peptides were exposed to 500 U/mL porcine trypsin and analyzed by HPLC. Protease resistance was also assessed by using SDPR-displaying peptides. The SDPR vector is similar to the a surface display GFP FasL(SDGF) vector, but contains a C-terminal 6×His tag (SEQ ID NO: 180) and all basic or aromatic amino acid residues on the stalk removed. Protease resistance is then tested by incubation of cells displaying peptides with trypsin or chymotrypsin, followed by incubation in 10 mM DTT, and staining with an anti-6×His fluorophore-labeled antibody (“6×His” disclosed as SEQ ID NO: 180). If peptides are uncleaved, they retain the His tag and are stained with by the antibody. A control protease-sensitive knottin peptide (SK) was used as a positive control. Cells displaying peptides were treated with up to 40 μg/ml trypsin or chymotrypsin.
# FIG. 21 illustrates high performance liquid chromatograph (HPLC) traces of peptides after trypsin digestion. […] The assay was carried out by reconstituting 1 mg porcine trypsin (Sigma Aldrich 6567) in 1 mL of 1 mM HCl. Trypsin was provided at a concentration of 10,000 u/mL and thus, 5 μl of stock solution was equivalent to using 50 U of trypsin in each reaction. Soybean trypsin inhibitor (SA T9128) was prepared at 1 mg/mL of in H2O. […]
# pepsin = pepsin (Sus scrofa, UniProt P00791); assay: Pepsin digestion resistance in simulated gastric fluid, RP-HPLC; type: in vitro ADME, porcine; design: purchased Sigma Aldrich P7012; conditions: 500 U/ml pepsin in SGF pH 1.05, 30 minutes at 37.5° C.; HPLC peak vs untreated peptide
# Protocol: Peptides were first suspended in 500 ul of ddH2O to a stock concentration of 2 mg/ml. Reactions were prepared by adding 12.5 ug of peptide from the stock solution to a 10 mM solution of DTT in PBS and allowed to incubate at room temperature for 30 minutes. Other reactions were prepared with 12.5 μg peptide with or without 500 U/ml pepsin in simulated gastric fluid (SGF; pH 1.05; […] sodium chloride in 0.7% (v/v) hydrochloric acid) and were incubated for 30 minutes at 37.5° C. Some reactions were quenched with a final concentration of 100 mM Tris base and 10 mM dithiothreitol (DTT). Some reactions were performed in all of the above components, including simulated gastric fluid, pepsin, Tris, and DTT (referred to as SPTD). Reversed phase HPLC (RP-HPLC) was run on samples using an Agilent 1260 HPLC equipped with a C-18 Poroshell 120B column. Sample were analyzed by a gradient method with a mobile phase of Solvent A (water with 0.1% TFA) and Solvent B (acetonitrile with 0.1% TFA). Solvent B was ramped up from 5%-45% of the mobile phase over a period of 10 minutes. Peptides were detected at an absorbance of 214 nm and 280 nm.
# as §1, §2
# FIG. 20 illustrates high performance liquid chromatograph (HPLC) traces of peptides after pepsin digestion. […]
# Chain of trypsin (P00761 9-231): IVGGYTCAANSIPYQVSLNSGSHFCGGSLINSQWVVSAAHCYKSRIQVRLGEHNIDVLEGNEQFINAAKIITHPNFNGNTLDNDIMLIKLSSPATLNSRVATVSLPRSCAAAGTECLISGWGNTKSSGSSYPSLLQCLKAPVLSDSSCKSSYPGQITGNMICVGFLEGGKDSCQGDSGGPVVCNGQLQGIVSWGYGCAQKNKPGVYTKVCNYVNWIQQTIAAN
# Chain of pepsin (P00791 60-385): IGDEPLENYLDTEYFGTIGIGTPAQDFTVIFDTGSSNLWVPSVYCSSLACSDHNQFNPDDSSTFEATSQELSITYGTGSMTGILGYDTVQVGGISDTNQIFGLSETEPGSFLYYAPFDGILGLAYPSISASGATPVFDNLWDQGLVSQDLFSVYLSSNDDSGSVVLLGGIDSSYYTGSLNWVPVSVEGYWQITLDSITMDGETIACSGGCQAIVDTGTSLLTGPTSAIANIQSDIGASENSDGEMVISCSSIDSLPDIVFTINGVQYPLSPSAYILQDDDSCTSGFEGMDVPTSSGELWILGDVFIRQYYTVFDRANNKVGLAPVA
SMILES,Resistance to Trypsin (500 U/ml) (trypsin),Resistance to Pepsin (500 U/ml) (pepsin)
"CSCC[C@@H]1NC(=O)[C@@H]2CSSC[C@H](NC(=O)[C@H](CCCCN)NC(=O)[C@@H](NC(=O)[C@H](CC(=O)O)NC(=O)[C@@H](NC(=O)[C@H](Cc3ccccc3)NC(=O)[C@H](CCC(N)=O)NC(=O)[C@H](CO)NC(=O)CN)[C@@H](C)O)C(C)C)C(=O)N[C@@H]([C@@H](C)O)C(=O)NCC(=O)N[C@@H](CO)C(=O)N[C@@H](CCCCN)C(=O)N[C@@H](CCC(N)=O)C(=O)N[C@H]3CSSC[C@H](NC(=O)[C@H](CCCCN)NC(=O)CNC(=O)[C@H](CC(N)=O)NC1=O)C(=O)N[C@@H](CCCNC(=N)N)C(=O)N[C@H](C(=O)N[C@@H](Cc1ccc(O)cc1)C(=O)N[C@@H](CO)C(=O)O)CSSC[C@H](NC(=O)[C@H](C(C)C)NC(=O)[C@@H]1CCCN1C(=O)[C@H](Cc1c[nH]c4ccccc14)NC3=O)C(=O)N[C@@H](CCCCN)C(=O)N[C@@H](CCC(N)=O)C(=O)N[C@@H](CCSC)C(=O)N[C@@H](Cc1ccccc1)C(=O)NCC(=O)N[C@@H](CCCCN)C(=O)N1CCC[C@H]1C(=O)N[C@@H](CC(N)=O)C(=O)NCC(=O)N[C@@H](CCCCN)C(=O)N2 [compound 12] (H-GSQFTDVKCTGSKQCWPVCKQMFGKPNGKCMNGKCRCYS-OH; disulfide 9-30, 15-35, 19-37)",Moderate (A peptide classified as medium indicates that about half (between 25% and 75%) of the HPLC peak of the treated peptide disappeared as compared to the HPLC peak of the untreated peptide),High (A peptide classified as high indicates that the majority (at least 75%) of the HPLC peak of the treated peptide is still present as compared to the HPLC peak of the untreated peptide)
"CC[C@H](C)[C@H](NC(=O)[C@H](CCCNC(=N)N)NC(=O)[C@@H](NC(=O)[C@H](CO)NC(=O)CN)C(C)C)C(=O)N1CCC[C@H]1C(=O)N[C@H](C(=O)N[C@@H](CO)C(=O)N[C@H]1CSSC[C@@H]2NC(=O)[C@H](CCCCN)NC(=O)CNC(=O)[C@H](Cc3ccccc3)NC(=O)[C@H](CCCNC(=N)N)NC(=O)[C@H](CCSC)NC(=O)CNC(=O)[C@H](C)NC(=O)[C@H](CC(=O)O)NC(=O)[C@H](CCCCN)NC(=O)[C@@H]3CSSC[C@@H](C(=O)N[C@H](C(=O)N4CCC[C@H]4C(=O)N[C@@H](CCCCN)C(=O)O)[C@@H](C)O)NC(=O)[C@H](CC(=O)O)NC(=O)[C@H](CSSC[C@H](NC(=O)[C@H](CCC(N)=O)NC(=O)CNC(=O)[C@H](CO)NC(=O)[C@H](Cc4c[nH]cn4)NC(=O)[C@H](CCCCN)NC1=O)C(=O)N[C@@H](CC(C)C)C(=O)N[C@@H](CCCCN)C(=O)N1CCC[C@H]1C(=O)N3)NC(=O)[C@H](CCCCN)NC(=O)CNC(=O)[C@H](CC(N)=O)NC(=O)[C@H](CCSC)NC2=O)C(C)C [compound 24] (H-GSVRIPVSCKHSGQCLKPCKDAGMRFGKCMNGKCDCTPK-OH; disulfide 9-29, 15-34, 19-36)",Low (A peptide classified as low indicates that the majority (over 75%) of the HPLC peak of the treated peptide disappeared as compared to the HPLC peak of the untreated peptide),High (A peptide classified as high indicates that the majority (at least 75%) of the HPLC peak of the treated peptide is still present as compared to the HPLC peak of the untreated peptide)
"CC[C@H](C)[C@@H]1NC(=O)[C@H](C)NC(=O)[C@H](CCC(=O)O)NC(=O)[C@H](CCCCN)NC(=O)[C@@H]2CSSC[C@@H](C(=O)N[C@@H](Cc3ccc(O)cc3)C(=O)N3CCC[C@H]3C(=O)O)NC(=O)[C@H](CCCCN)NC(=O)[C@@H]3CSSC[C@H](NC(=O)[C@H](CCC(=O)O)NC(=O)[C@@H]4CCCN4C(=O)[C@H](CO)NC(=O)CNC(=O)[C@H](CCCNC(=N)N)NC(=O)[C@@H](NC(=O)[C@H](CCCCN)NC(=O)[C@@H](NC(=O)[C@H](CC(N)=O)NC(=O)[C@@H](NC(=O)[C@H](Cc4ccccc4)NC(=O)[C@@H](NC(=O)[C@H](CO)NC(=O)CN)C(C)C)[C@@H](C)CC)C(C)C)CSSC[C@H](NC(=O)[C@H](CCCCN)NC(=O)CNC(=O)[C@H](C)NC(=O)[C@H](CO)NC(=O)[C@H](CCCCN)NC(=O)CNC1=O)C(=O)N[C@@H](CCSC)C(=O)N[C@@H](CC(N)=O)C(=O)NCC(=O)N[C@@H](CCCCN)C(=O)N3)C(=O)N[C@@H](CC(C)C)C(=O)N1CCC[C@H]1C(=O)N[C@@H](CCCCN)C(=O)N2 [compound 37] (H-GSVFINVKCRGSPECLPKCKEAIGKSAGKCMNGKCKCYP-OH; disulfide 9-30, 15-35, 19-37)",Low (A peptide classified as low indicates that the majority (over 75%) of the HPLC peak of the treated peptide disappeared as compared to the HPLC peak of the untreated peptide),High (A peptide classified as high indicates that the majority (at least 75%) of the HPLC peak of the treated peptide is still present as compared to the HPLC peak of the untreated peptide)
"CC[C@H](C)[C@@H]1NC(=O)[C@@H]2CSSC[C@H](NC(=O)[C@@H](NC(=O)[C@H](C)NC(=O)[C@H](CO)NC(=O)CN)C(C)C)C(=O)N[C@@H](CC(N)=O)C(=O)N[C@@H](CC(C)C)C(=O)N[C@@H](CCCCN)C(=O)N[C@@H](CCCNC(=N)N)C(=O)N[C@H]3CSSC[C@H](NC(=O)[C@H](CCCCN)NC(=O)[C@H](CC(=O)O)NC(=O)CNC1=O)C(=O)N[C@@H](CCC(=O)O)C(=O)N[C@H](C(=O)N[C@H](C(=O)N[C@@H](CCCCN)C(=O)N[C@@H](Cc1c[nH]cn1)C(=O)NCC(=O)O)C(C)C)CSSC[C@H](NC(=O)[C@H](CO)NC(=O)[C@H](CC(C)C)NC(=O)[C@H](CCC(N)=O)NC3=O)C(=O)N[C@@H](CCCNC(=N)N)C(=O)N[C@@H](CO)C(=O)N[C@@H](CC(C)C)C(=O)NCC(=O)N[C@@H](CC(C)C)C(=O)N[C@@H](CC(C)C)C(=O)NCC(=O)N[C@@H](CCCCN)C(=O)N2 [compound 8] (H-GSAVCNLKRCQLSCRSLGLLGKCIGDKCECVKHG-OH; disulfide 5-23, 10-28, 14-30)",Low (A peptide classified as low indicates that the majority (over 75%) of the HPLC peak of the treated peptide disappeared as compared to the HPLC peak of the untreated peptide),High (A peptide classified as high indicates that the majority (at least 75%) of the HPLC peak of the treated peptide is still present as compared to the HPLC peak of the untreated peptide)
